Assay results: patent US6218380A, “Pharmaceutical compositions” (SmithKline Beecham p.l.c., priority 1991, dated 2001)
Structures can show the parent of a compound that is named as a salt.

Legend:
[1] = test system: Klebsiella aerogenes A; test: Antibacterial synergism, microtitre MIC (Example 42); assay type: cell-based; details: method of Example 42; unit not given
[2] = test system: Klebsiella aerogenes E 70; test: as above; assay type: cell-based; details: method of Example 42; unit not given
[3] = test system: Klebsiella aerogenes 62; test: as above; assay type: cell-based; details: method of Example 42; unit not given
[4] = test system: Staphylococcus aureus (Russell); test: M.I.C. with clavulanic acid methyl ester (Example 32); assay type: cell-based
[5] = test system: Proteus mirabilis C889; test: as above; assay type: cell-based
[6] = test system: strains of Klebsiella aerogenes A; test: Growth inhibition, penicillins with synergist (description); assay type: cell-based
[7] = test system: Staphylococcus aureus; test: Antibacterial synergism, microtitre MIC (Example 42); assay type: cell-based; details: method of Example 42
[8] = Hydrolysis of ester to clavulanic acid in pH 7 buffer; assay type: physicochemical; details: water buffered to pH7
Experimental: The reaction was followed by paper chromatography (bioautographic system). Using the butanol/ethanol/water system to follow the reaction over a period of 2 hours the zone of the methyl ester of Rf 0.79 decreased in size as the zone of clavulanic acid at Rf 0.12 increased.

[9] = Blood and tissue levels in female mice; assay type: in vivo; details: oral administration of 100 mg/kg of the sodium salt
[10] = test system: strains of Staphylococcus aureus; test: Growth inhibition (properties of clavulanic acid); assay type: cell-based
[11] = test system: β-lactamase producing strains of Escherichia coli, Klebsiella aerogenes and Staphylococcus aureus; test: Synergism with ampicillin (properties of clavulanic acid); assay type: cell-based
[12] = test system: β-lactamase producing strains of Proteus mirabilis and Staphylococcus aureus; test: Synergism with cephaloridine (properties of clavulanic acid); assay type: cell-based

For `CC1(C)S[C@@H]2[C@H](NC(=O)[C@H](N)c3ccccc3)C(=O)N2[C@H]1C(=O)O` [Ampicillin, ampicillin], the “MIC of Ampicillin + 5 μg/ml of Benzyl Ester of clavulanic acid” value (from here on “MIC … of Benzyl Ester of clavulanic acid”) [1] was 1.9, the “MIC of Ampicillin + 5 μg/ml of Methyl Ester of clavulanic acid” value (“MIC … of Methyl Ester of clavulanic acid” for short) [1] was 1.9 and the “MIC … of Benzyl Ester of clavulanic acid” value [2] was 3.9. The “MIC … of Methyl Ester of clavulanic acid” value [2] was 3.9, the “MIC … of Benzyl Ester of clavulanic acid” value [3] was 3.9 and the “MIC … of Methyl Ester of clavulanic acid” value [3] was 3.9. For the same compound, the “M.I.C. of antibiotic in the presence of 1.0 μg/ml. clavulanic acid methyl ester” value [4] was under 0.4 µg/mL and the “M.I.C. for ampicillin in the presence of 5 μg/ml. clavulanic acid methyl ester” value [5] was 31 µg/mL.
With `CC1(C)S[C@@H]2[C@H](NC(=O)Cc3ccccc3)C(=O)N2[C@H]1C(=O)O` [Benzylpenicillin, benzylpenicillin] the “Concentration of penicillin that inhibits growth when 5 μg/ml. of clavulanic acid is also present” value [6] was “less than 12.5 μg/ml”.
In the case of `O=C(Cc1cccs1)N[C@@H]1C(=O)N2C(C(=O)[O-])=C(C[n+]3ccccc3)CS[C@H]12` [Cephaloridine, cephaloridine], the “Minimum Inhibitory Concentrations, cephaloridine in presence of 5 μg/ml clavulanic acid sodium salt” value [7] is reported as 3.7 µg/mL.
For `COC(=O)[C@H]1/C(=C/CO)O[C@@H]2CC(=O)N21` [clavulanic acid methyl ester], the “Hydrolysis to clavulanic acid” value [8] was “slowly hydrolyse to clavulanic acid”.
With `O=C(O)[C@H]1/C(=C/CO)O[C@@H]2CC(=O)N21` [clavulanic acid sodium salt, 3-(β-hydroxyethylidine)-7-oxo-4-oxa-1-azabicyclo[3,2,0]heptane-2-carboxylic acid sodium salt] the “Levels of clavulanic acid” value [9] was “useful levels”.
For `O=C(O)[C@H]1/C(=C/CO)O[C@@H]2CC(=O)N21` [clavulanic acid, Z-(2R,5R)-3-(β-hydroxyethylidene)-7-oxo-4-oxa-1-azabicyclo[3,2,0]heptane-2-carboxylic acid], the “Inhibition of growth of strains of Staphylococcus aureus” value [10] was “able to inhibit the growth”, the “Synergism of the antibacterial effect of ampicillin” value [11] was “able to synergise the antibacterial effect of ampicillin” and the “Synergism of the antibacterial effect of cephaloridine” value [12] was “able to synergise the antibacterial effect of cephaloridine”.
